What was measured:
Test in all cases: relative viability (nuclei count vs DMSO), 5 days (fraction); higher = more cells survive
Motesanib + Navitoclax = compound: CC1(C)CNc2cc(NC(=O)c3cccnc3NCc3ccncc3)ccc21 [Motesanib] + CC1(C)CCC(c2ccc(Cl)cc2)=C(CN2CCN(c3ccc(C(=O)NS(=O)(=O)c4ccc(N[C@H](CCN5CCOCC5)CSc5ccccc5)c(S(=O)(=O)C(F)(F)F)c4)cc3)CC2)C1 [Navitoclax] (partner 0.5 µM)
Summary of the method: (§1)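 Lung cancer cell lines were pin-tool dosed in 1536-well plates on the day after seeding, with either a lone drug or a fixed anchor-drug dose plus five library-drug doses (not always all listed) in √10 steps. Nuclei were counted on 4× images after 5 days. Relative viability is the ratio of treated-well to vehicle-well nuclei counts, with each value a median of duplicate plates.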

Motesanib + Lapatinib = compound: CC1(C)CNc2cc(NC(=O)c3cccnc3NCc3ccncc3)ccc21 [Motesanib] + CS(=O)(=O)CCNCc1ccc(-c2ccc3ncnc(Nc4ccc(OCc5cccc(F)c5)c(Cl)c4)c3c2)o1 [Lapatinib] (partner 2 µM)
Summary of the method: as §1

[1] = compound: C[C@@]1(C(=O)Nc2ccc(F)nc2)CCCN1c1nc(Nc2cc(C3CC3)n[nH]2)c2cccn2n1 + CCNC(=O)c1noc(-c2cc(C(C)C)c(O)cc2O)c1-c1ccc(CN2CCOCC2)cc1 [Luminespib] (partner 0.01 µM)
Summary of the method: as §1

[2] = compound: C[C@@]1(C(=O)Nc2ccc(F)nc2)CCCN1c1nc(Nc2cc(C3CC3)n[nH]2)c2cccn2n1 + Cc1nc(Nc2ncc(C(=O)Nc3c(C)cccc3Cl)s2)cc(N2CCN(CCO)CC2)n1 [Dasatinib] (partner 0.075 µM)
Summary of the method: as §1

Row | Cell Line | relative viability (Motesanib + Navitoclax; first compound 0.01 µM) | relative viability (Motesanib + Navitoclax; first compound 0.03162 µM) | relative viability (Motesanib + Navitoclax; first compound 0.1 µM) | relative viability (Motesanib + Navitoclax; first compound 0.3162 µM) | relative viability (Motesanib + Navitoclax; first compound 1 µM) | relative viability (Motesanib + Lapatinib; first compound 0.01 µM) | relative viability (Motesanib + Lapatinib; first compound 0.03162 µM) | relative viability (Motesanib + Lapatinib; first compound 0.1 µM) | relative viability (Motesanib + Lapatinib; first compound 0.3162 µM) | relative viability (Motesanib + Lapatinib; first compound 1 µM) | relative viability ([1]; first compound 0.04 µM) | relative viability ([1]; first compound 0.1265 µM) | relative viability ([1]; first compound 0.4 µM) | relative viability ([1]; first compound 1.265 µM) | relative viability ([2]; first compound 0.04 µM) | relative viability ([2]; first compound 0.1265 µM) | relative viability ([2]; first compound 0.4 µM) | relative viability ([2]; first compound 1.265 µM)
1 | NCI-H520 | 1.12 | 0.982 | 1.1 | 1.03 | 1.04 | 0.714 | 0.823 | 0.877 | 0.882 | 0.899 | 0.214 | 0.242 | 0.267 | 0.211 | 0.207 | 0.176 | 0.176 | 0.229
2 | NCI-H647 | 1.26 | 1.49 | 1.28 | 1.19 | 1.18 | 0.995 | 1 | 1.11 | 1.19 | 1.09 | 0.152 | 0.245 | 0.181 | 0.164 | 0.361 | 0.0884 | 0.105 | 0.214
3 | NCI-H1792 | 0.612 | 0.605 | 0.584 | 0.578 | 0.703 | 0.881 | 0.854 | 0.843 | 0.926 | 0.945 | 0.344 | 0.653 | 0.243 | 0.292 | 0.283 | 1.06 | 0.211 | 0.227
4 | SK-LU-1 | 0.611 | 0.695 | 0.925 | 0.919 | 1.13 | 0.844 | 1.02 | 0.894 | 0.961 | 1.01 | 0.208 | 0.191 | 0.184 | 0.172 | 0.116 | 0.112 | 0.0979 | 0.0968
5 | NCI-H1650 | 1.19 |  | 1.17 | 1.44 | 1.23 | 0.807 |  | 0.667 | 0.723 | 0.735 | 0.215 | 0.194 | 0.199 | 0.181 | 0.313 | 0.266 | 0.249 | 0.144

— the supplement of paper PMC10307832
